Counter-ions that a name gives are not always drawn.

The target in the first assay is PDE4B (Homo sapiens, UniProt Q07343). Briefly: Scintillation Proximity Assay (SPA) of PDE4B enzyme activity ([H3]-cAMP cleavage). The settings on record: test substance 1 μM; one-hour incubation of [H3]-cAMP with PDE4B enzyme at 30° C. The format is biochemical. A digest of the protocol: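 Percent inhibition at 1 μM compound, measured against an uninhibited reaction. PDE4B hydrolysed tritiated cAMP for one hour at 30 °C, then scintillator beads were added to capture [H3]-5′-AMP. Light events were counted after 45 min bead settling.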
Chain of PDE4B (Q07343 whole entry, species assumed): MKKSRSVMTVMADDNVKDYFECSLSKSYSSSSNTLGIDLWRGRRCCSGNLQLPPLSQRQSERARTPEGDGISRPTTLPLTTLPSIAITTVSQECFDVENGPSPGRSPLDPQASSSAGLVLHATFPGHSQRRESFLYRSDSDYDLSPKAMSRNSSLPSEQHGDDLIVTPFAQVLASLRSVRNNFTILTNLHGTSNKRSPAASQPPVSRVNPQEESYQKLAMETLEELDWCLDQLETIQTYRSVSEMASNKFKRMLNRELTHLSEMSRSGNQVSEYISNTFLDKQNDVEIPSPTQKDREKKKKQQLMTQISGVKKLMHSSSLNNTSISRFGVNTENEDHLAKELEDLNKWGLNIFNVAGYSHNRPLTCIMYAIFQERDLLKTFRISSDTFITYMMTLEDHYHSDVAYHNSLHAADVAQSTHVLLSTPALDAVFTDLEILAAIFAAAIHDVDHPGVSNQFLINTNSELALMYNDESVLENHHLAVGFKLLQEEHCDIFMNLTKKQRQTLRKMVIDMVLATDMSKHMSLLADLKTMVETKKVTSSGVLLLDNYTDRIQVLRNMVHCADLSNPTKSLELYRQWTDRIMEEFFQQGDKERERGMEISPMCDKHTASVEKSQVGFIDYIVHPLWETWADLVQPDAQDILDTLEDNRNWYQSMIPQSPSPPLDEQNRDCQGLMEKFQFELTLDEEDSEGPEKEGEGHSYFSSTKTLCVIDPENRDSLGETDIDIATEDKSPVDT
Broadly, the inhibition is the share of the control response that was lost under treatment. `N#Cc1cccc(C2CCN(c3nc4c(c(Nc5cccc(F)c5)n3)[S+]([O-])CC4)CC2)c1` (centres unmarked) [Example 138] showed an inhibition at 1 µM of 96%.
`[O-][S+]1CCc2nc(N3CCC(c4nnc5ccccn45)CC3)nc(Nc3cccc(F)c3)c21` (centres unmarked) [Example 139] displayed an inhibition at 1 µM of 94%.
Compound `[O-][S+]1CCc2nc(N3CCC4(CC3)OCc3ccccc34)nc(Nc3cccc(F)c3)c21` (centres unmarked) [Example 140] showed an inhibition at 1 µM of 83%.
On to `[O-][S+]1CCc2nc(N3CCC(c4cc5ccccc5o4)CC3)nc(Nc3cccc(F)c3)c21` (centres unmarked) [Example 141], for which the inhibition at 1 µM worked out at 97%.
`[O-][S+]1CCc2nc(N3CCC(c4ccc5ccccc5c4)CC3)nc(Nc3cccc(F)c3)c21` (centres unmarked) [Example 142] yielded an inhibition at 1 µM of 94%.
With `[O-][S+]1CCc2nc(N3CCC(c4nnc(-c5ccc(F)cc5)o4)CC3)nc(Nc3cccc(F)c3)c21` (centres unmarked) [Example 143], the inhibition at 1 µM was found to be 95%.
On the same count and under the same terms, the figure for `CC(C)c1noc(C2CCN(c3nc4c(c(Nc5cccc(F)c5)n3)[S+]([O-])CC4)CC2)n1` (centres unmarked) [Example 144] is 94%; for `[O-][S+]1CCc2nc(N3CCC(c4cc(-c5ccco5)n[nH]4)CC3)nc(Nc3cccc(F)c3)c21` (centres unmarked) [Example 145, (3-Fluorophenyl)-{2-[4-(5-Furan-2-Yl-2H-Pyrazol-3-Yl)-Piperidin-1-Yl]-5-Oxo-6,7-Dihydro-5H-5λ^4-Thieno[3,2-d]Pyrimidin-4-Yl}-Amine Trifluoracetat] it is 96%; for `[O-][S+]1CCc2nc(N3CCC(c4nc(-c5cccnc5)no4)CC3)nc(Nc3cccc(F)c3)c21` (centres unmarked) [Example 146] it is 96%.
As to `[O-][S+]1CCc2nc(N3CCC(c4nc(-c5ccncc5)no4)CC3)nc(Nc3cccc(F)c3)c21` (centres unmarked) [Example 147, (3-Fluorophenyl)-{5-Oxo-2-[4-(3-Pyridin-4-Yl-[1,2,4]Oxadiazol-5-Yl)-Piperidin-1-Yl]-6,7-Dihydro-5H-5λ^4-Thieno[3,2-d]Pyrimidin-4-Yl}-Amine Trifluoroacetate], 1 µM produced 95% inhibition.
The compound `COc1ccc(C2CCN(c3nc4c(c(N[C@@H](CO)C(C)C)n3)[S+]([O-])CC4)CC2)cc1` (some centres unmarked) [Example 148] gave an inhibition at 1 µM of 93%.
On the same count and under the same terms, the value for `CC(C)[C@H](CO)Nc1nc(N2CCC(c3nc4cc(Cl)ccc4s3)CC2)nc2c1[S+]([O-])CC2` (some centres unmarked) [Example 149] was 94%; that for `COC(=O)c1ccc(C2CCN(c3nc4c(c(N[C@@H](CO)C(C)C)n3)[S+]([O-])CC4)CC2)cc1` (some centres unmarked) [Example 150] was 94%.
The same measure, in the same setting: the figure for `COC(=O)c1cccc(C2CCN(c3nc4c(c(N[C@@H](CO)C(C)C)n3)[S+]([O-])CC4)CC2)c1` (some centres unmarked) [Example 151] is 94%; for `CC(C)[C@H](CO)Nc1nc(N2CCC(c3noc4cc(F)ccc34)CC2)nc2c1[S+]([O-])CC2` (some centres unmarked) [Example 152] it is 95%.
Consider `CC(C)[C@H](CO)Nc1nc(N2CCC(c3noc4ccc(F)cc34)CC2)nc2c1[S+]([O-])CC2` (some centres unmarked) [Example 153], for which the inhibition at 1 µM was determined as 95%.
Consider `CC(C)[C@H](CO)Nc1nc(N2CCC(c3cccc(C#N)c3)CC2)nc2c1[S+]([O-])CC2` (some centres unmarked) [Example 154], for which the inhibition at 1 µM was found to be 92%.
As for `CC(C)[C@H](CO)Nc1nc(N2CCC(c3nnc4ccccn34)CC2)nc2c1[S+]([O-])CC2` (some centres unmarked) [Example 155], at 1 µM the inhibition was 83%.
`CC(C)[C@H](CO)Nc1nc(N2CCC3(CC2)OCc2ccccc23)nc2c1[S+]([O-])CC2` (some centres unmarked) [Example 156]: the inhibition at 1 µM was found to be 64%.
In turn, `CC(C)[C@H](CO)Nc1nc(N2CCC(c3cc4ccccc4o3)CC2)nc2c1[S+]([O-])CC2` (some centres unmarked) [Example 157] yielded an inhibition at 1 µM of 96%.
On the same count and under the same terms, the value for `CC(C)[C@H](CO)Nc1nc(N2CCC(c3ccc4ccccc4c3)CC2)nc2c1[S+]([O-])CC2` (some centres unmarked) [Example 158] was 94%; that for `CC(C)[C@H](CO)Nc1nc(N2CCC(c3nnc(-c4ccc(F)cc4)o3)CC2)nc2c1[S+]([O-])CC2` (some centres unmarked) [Example 159] was 94%; that for `CC(C)c1noc(C2CCN(c3nc4c(c(N[C@@H](CO)C(C)C)n3)[S+]([O-])CC4)CC2)n1` (some centres unmarked) [Example 160] was 86%.
Same read-out and setting: the value for `CC(C)[C@H](CO)Nc1nc(N2CCC(c3cc(-c4ccco4)n[nH]3)CC2)nc2c1[S+]([O-])CC2` (stereo partly drawn) [Example 161, (R)-2-{2-[4-(5-Furan-2-Yl-2H-Pyrazol-3-Yl)-Piperidin-1-Yl]-5-Oxo-6,7-Dihydro-5H-5λ^4-Thieno[3,2-d]Pyrimidin-4-Ylamino}-3-Methylbutan-1-Ol Trifluoroacetate] was 94%.
The same measure, in the same setting: the value for `CC(C)[C@H](CO)Nc1nc(N2CCC(c3nc(-c4cccnc4)no3)CC2)nc2c1[S+]([O-])CC2` (some centres unmarked) [Example 162] was 92%; that for `CC(C)[C@H](CO)Nc1nc(N2CCC(c3nc(-c4ccncc4)no3)CC2)nc2c1[S+]([O-])CC2` (stereo partly drawn) [Example 163, (R)-3-Methyl-2-{5-Oxo-2-[4-(3-Pyridin-4-Yl-[1,2,4]Oxadiazol-5-Yl)-Piperidin-1-Yl]-6,7-Dihydro-5H-5λ^4-Thieno[3,2-d]Pyrimidin-4-Ylamino}-Butan-1-Ol Trifluoroacetate] was 92%.

The assay is the same for the next values; noted with them: test substance 1 μM; one-hour incubation with [H3]-cAMP at 30° C.
`[O-][S+]1CCc2nc(N3CCC(c4ccccc4)CC3)nc(NC3(CO)CC3)c21` (centres unmarked) [Example 164] yielded an inhibition at 1 µM of 92%.
On the same count and under the same terms, the value for `[O-][S+]1CCc2nc(N3CCC(Oc4ccc(F)cc4)CC3)nc(Nc3cccc(F)c3)c21` (centres unmarked) [Example 165] was 92%.
Compound `[O-][S+]1CCc2nc(N3CCC(Oc4ccc(F)cc4)CC3)nc(NC3CCOCC3)c21` (centres unmarked) [Example 166] returned an inhibition at 1 µM of 92%.
Same read-out and setting: the value for `[O-][S+]1CCc2nc(N3CCC(Oc4ccc(F)cc4)CC3)nc(NC3(CO)CC3)c21` (centres unmarked) [Example 167] was 91%.
The same measure, in the same setting: the figure for `CC(C)[C@H](CO)Nc1nc(N2CCC(Oc3ccc(F)cc3)CC2)nc2c1[S+]([O-])CC2` (some centres unmarked) [Example 168] is 89%; for `CN1C[C@@H](Nc2nc(N3CCC(Oc4ccc(F)cc4)CC3)nc3c2[S+]([O-])CC3)CCC1=O` (some centres unmarked) [Example 169] it is 92%.
Take `COC1CCN(c2nc3c(c(NC4CCOCC4)n2)[S+]([O-])CC3)CC1` (centres unmarked) [Example 170]: testing at 1 µM gave an inhibition of 77%.
The same measure, in the same setting: the figure for `[O-][S+]1CCc2nc(N3CCC(OCc4ccccc4)CC3)nc(NC3CCOCC3)c21` (centres unmarked) [Example 172] is 91%; for `[O-][S+]1CCc2nc(N3CCC(Oc4ccccn4)CC3)nc(NC3CCOCC3)c21` (centres unmarked) [Example 173] it is 95%.
As for `[O-][S+]1CCc2nc(N3CCC(Oc4ccc5c(c4)OCO5)CC3)nc(NC3CCOCC3)c21` (centres unmarked) [Example 174], at 1 µM the inhibition was 92%.
The compound `[O-][S+]1CCc2nc(N3CCC(Oc4ccc(F)c(F)c4)CC3)nc(NC3CCOCC3)c21` (centres unmarked) [Example 175] had an inhibition at 1 µM of 89%.
In the case of `COC(=O)c1ccc(OC2CCN(c3nc4c(c(NC5CCOCC5)n3)[S+]([O-])CC4)CC2)cc1` (centres unmarked) [Example 176], testing at 1 µM gave an inhibition of 93%.
In the case of `COC(=O)c1cccc(OC2CCN(c3nc4c(c(NC5CCOCC5)n3)[S+]([O-])CC4)CC2)c1` (centres unmarked) [Example 177], the inhibition at 1 µM amounted to 93%.
The same measure, in the same setting: the value for `CCN(CC)CCOc1ccc(OC2CCN(c3nc4c(c(NC5CCOCC5)n3)[S+]([O-])CC4)CC2)cc1` (centres unmarked) [Example 178, (2-{4-[4-(2-diethylamino-ethoxy)-phenoxy]-piperidin-1-yl}-5-oxo-6,7-dihydro-5H-5λ^4-thieno[3,2-d]pyrimidin-4-yl)-(tetrahydropyran-4-yl)-amine] was 92%.
Turning to `[O-][S+]1CCc2nc(N3CCC(Oc4ccccc4Cl)CC3)nc(NC3CCOCC3)c21` (centres unmarked) [Example 179], the inhibition at 1 µM came to 75%.
On to `[O-][S+]1CCc2nc(N3CCC(Oc4ccc(C5=NCCO5)cc4)CC3)nc(NC3CCOCC3)c21` (centres unmarked) [Example 180, (2-{4-[4-(4,5-dihydroxazol-2-yl)-phenoxy]-piperidin-1-yl}-5-oxo-6,7-dihydro-5H-5λ^4-thieno[3,2-d]pyrimidin-4-yl)-(tetrahydropyran-4-yl)-amine], for which the inhibition at 1 µM came to 93%.
`[O-][S+]1CCc2nc(N3CCC(Oc4ccc(Cl)c(Cl)c4)CC3)nc(NC3CCOCC3)c21` (centres unmarked) [Example 181] came in with an inhibition at 1 µM of 92%.
Compound `O=C(N1CCc2ccc(OC3CCN(c4nc5c(c(NC6CCOCC6)n4)[S+]([O-])CC5)CC3)cc2CC1)C(F)(F)F` (centres unmarked) [Example 182, 2,2,2-Trifluoro-1-(7-{1-[5-Oxo-4-(Tetrahydropyran-4-Ylamino)-6,7-Dihydro-5H-5λ^4-Thieno[3,2-d]Pyrimidin-2-Yl]-Piperidin-4-Yloxy}-1,2,4,5-Tetrahydrobenzo[d]Azepin-3-Yl)-Ethanone] had an inhibition at 1 µM of 82%.
`[O-][S+]1CCc2nc(N3CCC(Oc4ccc5c(c4)CCNCC5)CC3)nc(NC3CCOCC3)c21` (centres unmarked) [Example 183, (5-Oxo-2-[4-(2,3,4,5-Tetrahydro-1H-Benzo[d]Azepin-7-Yloxy)-Piperidin-1-Yl]-6,7-Dihydro-5H-5λ^4-Thieno[3,2-d]Pyrimidin-4-Yl)-(Tetrahydropyran-4-Yl)-Amine]: the inhibition at 1 µM is 91%.
Compound `O=C(O)c1ccc(OC2CCN(c3nc4c(c(NC5CCOCC5)n3)[S+]([O-])CC4)CC2)cc1` (centres unmarked) [Example 184, 4-{1-[5-Oxo-4-(Tetrahydropyran-4-Ylamino)-6,7-Dihydro-5H-5λ^4-Thieno[3,2-d]Pyrimidin-2-Yl]-Piperidin-4-Yloxy}-Benzoic Acid] displayed an inhibition at 1 µM of 92%.
On the same count and under the same terms, the figure for `CC(C)(O)C1(Nc2nc(N3CCC(c4ccc(Cl)cc4)CC3)nc3c2[S+]([O-])CC3)CC1` (centres unmarked) [Example 185, 2-(1-{2-[4-(4-chlorophenyl)-piperidin-1-yl]-5-oxo-6,7-dihydro-5H-5λ^4-thieno[3,2-d]pyrimidin-4-ylamino}-cyclopropyl)-propan-2-ol] is 94%.

For the origin of these results see US8754073B2, “Substituted piperazino-dihydrothienopyrimidines” (Boehringer Ingelheim International GmbH, priority 2007, dated 2014).
